Laboratory results as given in patent US9062124B2, “GIP-based mixed agonists for treatment of metabolic disorders and obesity” (priority 2008, dated 2015).
Where a SMILES comes first, the peptide text is derived from it. Bridges are numbered along the chain shown (N, C = ends). Where no end group is shown, it is not given here. [ ]: non-standard residue; d: D form. PhLac = O=C(O)[C@@H](O)Cc1ccccc1; Dab = NCC[C@H](N)C(=O)O; Aib = CC(C)(N)C(=O)O

Experiments:
glucagon receptor = molecular target: T1, glucagon receptor (Homo sapiens, UniProt P47871); test: cAMP synthesis functional assay (firefly luciferase reporter in HEK293 cells), glucagon receptor; assay type: cell-based; settings: for Glucagon Receptor relative activity: relative to the native hormone of the indicated receptor; for % activity*: glucagon receptor
T1 construct: expressed in transfected cells; host or cells: HEK293

GLP-1 receptor = molecular target: T2, GLP-1 receptor (Homo sapiens, UniProt P43220); test: cAMP synthesis functional assay (firefly luciferase reporter in HEK293 cells), GLP-1 receptor; assay type: cell-based; settings: for GLP-1 Receptor relative activity: relative to the native hormone of the indicated receptor
T2 construct: expressed in transfected cells; host or cells: HEK293

[1] = Glucagon Receptor EC50, nM, Table 1
[2] = GLP-1 Receptor EC50, nM, Table 1

T1 sequence (P47871 26-477): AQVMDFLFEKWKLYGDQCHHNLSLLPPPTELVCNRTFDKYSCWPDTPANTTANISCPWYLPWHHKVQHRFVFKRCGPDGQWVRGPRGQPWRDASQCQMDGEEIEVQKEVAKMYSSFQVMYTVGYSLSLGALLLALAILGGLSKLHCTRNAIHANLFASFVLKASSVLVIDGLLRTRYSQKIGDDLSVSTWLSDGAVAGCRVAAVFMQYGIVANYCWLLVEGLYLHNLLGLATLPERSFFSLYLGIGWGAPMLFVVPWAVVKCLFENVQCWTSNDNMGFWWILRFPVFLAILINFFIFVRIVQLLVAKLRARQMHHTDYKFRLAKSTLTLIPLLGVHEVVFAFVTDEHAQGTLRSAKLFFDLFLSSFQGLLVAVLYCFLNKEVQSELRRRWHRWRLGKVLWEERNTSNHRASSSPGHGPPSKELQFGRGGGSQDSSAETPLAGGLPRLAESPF
T2 sequence (P43220 24-463, species assumed): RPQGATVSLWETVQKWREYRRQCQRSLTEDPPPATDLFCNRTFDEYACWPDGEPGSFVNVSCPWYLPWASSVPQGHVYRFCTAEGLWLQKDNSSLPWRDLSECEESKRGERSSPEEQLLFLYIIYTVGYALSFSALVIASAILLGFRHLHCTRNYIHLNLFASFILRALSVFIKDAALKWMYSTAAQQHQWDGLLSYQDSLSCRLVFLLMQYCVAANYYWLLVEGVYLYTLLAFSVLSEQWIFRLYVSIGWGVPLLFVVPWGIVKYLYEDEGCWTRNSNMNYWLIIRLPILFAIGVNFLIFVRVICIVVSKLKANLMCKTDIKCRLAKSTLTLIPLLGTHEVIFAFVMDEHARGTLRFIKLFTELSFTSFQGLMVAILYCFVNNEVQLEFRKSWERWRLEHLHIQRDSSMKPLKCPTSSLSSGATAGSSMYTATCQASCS

Glucagon Receptor relative activity (glucagon receptor; Table 1) | GLP-1 Receptor relative activity (GLP-1 receptor; Table 1) | Compound | further results
0.11% | 0.02% | YAEGTFISDYSIAMDKIHQQDFVNWLLAQ-NH2 [mt-106] | 
0.07% | 0.04% | CC[C@H](C)[C@H](NC(=O)[C@H](CO)NC(=O)[C@H](Cc1ccc(O)cc1)NC(=O)[C@H](CC(=O)O)NC(=O)[C@H](CO)NC(=O)[C@@H](NC(=O)[C@@H](O)Cc1ccccc1)[C@@H](C)CC)C(=O)N[C@@H](C)C(=O)N[C@@H](CCSC)C(=O)N[C@@H](CC(=O)O)C(=O)N[C@H]1CCC(=O)NCCCC[C@@H](C(=O)N[C@@H](CC(=O)O)C(=O)N[C@@H](Cc2ccccc2)C(=O)N[C@H](C(=O)N[C@@H](CC(N)=O)C(=O)N[C@@H](Cc2c[nH]c3ccccc23)C(=O)N[C@@H](CC(C)C)C(=O)N[C@@H](CC(C)C)C(=O)N[C@@H](C)C(=O)N[C@@H](CCC(N)=O)C(N)=O)C(C)C)NC(=O)[C@H](CCC(N)=O)NC(=O)[C@H](Cc2c[nH]cn2)NC(=O)[C@H]([C@@H](C)CC)NC1=O [mt-113] (H-[PhLac]ISDYSIAMDEIHQKDFVNWLLAQ-NH2; lactam 11-15) | 
13.20% | 6.10% | HSQGTFTSDYSKYLDKIHQEEFIAWLMNT-NH2 [mt-68] | EC50 (glucagon receptor; [1]): 1.97 nM
 |  | CNC(=O)CC[C@H](NC(=O)[C@H](CO)NC(=O)[C@@H](N)Cc1c[nH]cn1)C(=O)NCC(=O)N[C@H](C(=O)N[C@@H](Cc1ccccc1)C(=O)N[C@H](C(=O)N[C@@H](CO)C(=O)N[C@@H](CC(=O)O)C(=O)N[C@@H](Cc1ccc(O)cc1)C(=O)N[C@@H](CO)C(=O)N[C@@H](CCCCN)C(=O)N[C@@H](Cc1ccc(O)cc1)C(=O)N[C@@H](CC(C)C)C(=O)N[C@@H](CC(=O)O)C(=O)NC(C)(C)C(=O)N[C@@H](CCCNC(=N)N)C(=O)N[C@@H](CCCNC(=N)N)C(=O)N[C@@H](C)C(=O)N[C@@H](C)C(=O)N[C@@H](CC(=O)O)C(=O)N[C@@H](Cc1ccccc1)C(=O)N[C@H](C(=O)N[C@@H](C)C(=O)N[C@@H](Cc1c[nH]c2ccccc12)C(=O)N[C@@H](CC(C)C)C(=O)N[C@@H](CCSC)C(=O)N[C@@H](CC(=O)O)C(=O)N[C@@H](CCC(=O)O)C(=O)O)C(C)C)[C@@H](C)O)[C@@H](C)O [SEQ ID NO: 251] | % activity* (glucagon receptor; Table 6): 55%
13.33% | 50.00% | CC[C@H](C)[C@H](NC(=O)[C@H](Cc1ccccc1)NC(=O)[C@H](CCC(=O)O)NC(=O)[C@@H]1CCCCNC(=O)CC[C@H](NC(=O)[C@H](CC(=O)O)NC(=O)[C@H](CC(C)C)NC(=O)[C@H](Cc2ccc(O)cc2)NC(=O)[C@@H](NC(=O)[C@H](CO)NC(=O)[C@H](Cc2ccc(O)cc2)NC(=O)[C@H](CC(=O)O)NC(=O)[C@H](CO)NC(=O)[C@@H](NC(=O)[C@H](Cc2ccccc2)NC(=O)[C@@H](NC(=O)CNC(=O)[C@H](CCC(N)=O)NC(=O)[C@H](CO)NC(=O)[C@@H](N)Cc2c[nH]cn2)[C@@H](C)O)[C@@H](C)O)[C@@H](C)CC)C(=O)N[C@@H]([C@@H](C)CC)C(=O)N[C@@H](Cc2c[nH]cn2)C(=O)N[C@@H](CCC(N)=O)C(=O)N1)C(=O)N[C@@H](CS)C(=O)N[C@@H](Cc1c[nH]c2ccccc12)C(=O)N[C@@H](CC(C)C)C(=O)N[C@@H](CC(C)C)C(=O)N[C@@H](C)C(=O)N[C@@H](CCC(N)=O)C(N)=O [mt-84] (H-HSQGTFTSDYSIYLDEIHQKEFICWLLAQ-NH2; lactam 16-20; N-terminus assumed) | EC50 (glucagon receptor; [1]): 0.45 nM; EC50 (GLP-1 receptor; [2]): 0.16 nM
 |  | CC(=O)NCC[C@H](NC(=O)[C@H](CO)NC(=O)[C@@H](N)Cc1c[nH]cn1)C(=O)NCC(=O)N[C@H](C(=O)N[C@@H](Cc1ccccc1)C(=O)N[C@H](C(=O)N[C@@H](CO)C(=O)N[C@@H](CC(=O)O)C(=O)N[C@@H](Cc1ccc(O)cc1)C(=O)N[C@@H](CO)C(=O)N[C@@H](CCCCN)C(=O)N[C@@H](Cc1ccc(O)cc1)C(=O)N[C@@H](CC(C)C)C(=O)N[C@@H](CC(=O)O)C(=O)NC(C)(C)C(=O)N[C@@H](CCCNC(=N)N)C(=O)N[C@@H](CCCNC(=N)N)C(=O)N[C@@H](C)C(=O)N[C@@H](C)C(=O)N[C@@H](CC(=O)O)C(=O)N[C@@H](Cc1ccccc1)C(=O)N[C@H](C(=O)N[C@@H](C)C(=O)N[C@@H](Cc1c[nH]c2ccccc12)C(=O)N[C@@H](CC(C)C)C(=O)N[C@@H](CC(C)C)C(=O)N[C@@H](CC(=O)O)C(=O)N[C@H](C(=O)NCC(=O)N1CCC[C@H]1C(=O)N[C@@H](CO)C(=O)N[C@@H](CO)C(=O)NCC(=O)N[C@@H](C)C(=O)N1CCC[C@H]1C(=O)N1CCC[C@H]1C(=O)N1CCC[C@H]1C(=O)N[C@@H](CO)C(N)=O)[C@@H](C)O)C(C)C)[C@@H](C)O)[C@@H](C)O [SEQ ID NO: 254] (H-HS[Dab](Ac)GTFTSDYSKYLD[Aib]RRAADFVAWLLDTGPSSGAPPPS-NH2; N-terminus assumed) | % activity* (glucagon receptor; Table 7): 113%
13.00% | 38.46% | HSQGTFTSDYSKYLDEIHQKEFIAWLLAQ-NH2 [mt-66] | 
 |  | CC[C@H](C)[C@H](NC(=O)[C@H](CO)NC(=O)[C@H](Cc1ccc(O)cc1)NC(=O)[C@H](CC(=O)O)NC(=O)[C@H](CO)NC(=O)[C@@H](NC(=O)[C@H](Cc1ccccc1)NC(=O)[C@@H](NC(=O)CNC(=O)[C@H](CCC(=O)O)NC(=O)C(C)(C)NC(=O)[C@@H](N)Cc1ccc(O)cc1)[C@@H](C)O)[C@@H](C)O)C(=O)N[C@@H](Cc1ccc(O)cc1)C(=O)N[C@@H](CC(C)C)C(=O)N[C@@H](CC(=O)O)C(=O)N[C@@H](CCCCN)C(=O)N[C@@H](CCC(N)=O)C(=O)N[C@@H](C)C(=O)N[C@@H](C)C(=O)NC(C)(C)C(=O)N[C@@H](CCC(=O)O)C(=O)N[C@@H](Cc1ccccc1)C(=O)N[C@H](C(=O)N[C@@H](CCCCN)C(=O)N[C@@H](Cc1c[nH]c2ccccc12)C(=O)N[C@@H](CC(C)C)C(=O)N[C@@H](CC(C)C)C(=O)N[C@@H](C)C(=O)NCC(=O)NCC(=O)N1CCC[C@H]1C(=O)N[C@@H](CO)C(=O)N[C@@H](CO)C(=O)NCC(=O)N[C@@H](C)C(=O)N1CCC[C@H]1C(=O)N1CCC[C@H]1C(=O)N1CCC[C@H]1C(=O)N[C@@H](CO)C(N)=O)C(C)C [mt-268] | EC50 (glucagon receptor; Glucagon Receptor EC50, cAMP luciferase reporter assay as in Example 16): 6.5 nM; EC50 (GLP-1 receptor; GLP-1 Receptor EC50, cAMP luciferase reporter assay as in Example 16): 0.0155 nM
14.33% | 150.00% | CC[C@H](C)[C@H](NC(=O)[C@H](Cc1ccccc1)NC(=O)[C@@H]1CCC(=O)NCCCC[C@@H]2NC(=O)[C@@H](NC(=O)[C@H](CC(=O)O)NC(=O)[C@H](CC(C)C)NC(=O)[C@H](Cc3ccc(O)cc3)NC(=O)[C@@H](NC(=O)[C@H](CO)NC(=O)[C@H](Cc3ccc(O)cc3)NC(=O)[C@H](CC(=O)O)NC(=O)[C@H](CO)NC(=O)[C@@H](NC(=O)[C@H](Cc3ccccc3)NC(=O)[C@@H](NC(=O)CNC(=O)[C@H](CCC(N)=O)NC(=O)[C@H](CO)NC(=O)[C@@H](N)Cc3c[nH]cn3)[C@@H](C)O)[C@@H](C)O)[C@@H](C)CC)CCC(=O)NCCCC[C@H](NC(=O)[C@H](CCC(N)=O)NC(=O)[C@H](Cc3c[nH]cn3)NC2=O)C(=O)N1)C(=O)N[C@@H](C)C(=O)N[C@@H](Cc1c[nH]c2ccccc12)C(=O)N[C@@H](CC(C)C)C(=O)N[C@@H](CC(C)C)C(=O)N[C@@H](C)C(=O)N[C@@H](CCC(N)=O)C(N)=O [mt-93] | EC50 (GLP-1 receptor; [2]): 0.04 nM
 |  | CC(=O)NCC[C@H](NC(=O)[C@H](CO)NC(=O)[C@@H](N)Cc1c[nH]cn1)C(=O)NCC(=O)N[C@H](C(=O)N[C@@H](Cc1ccccc1)C(=O)N[C@H](C(=O)N[C@@H](CO)C(=O)N[C@@H](CC(=O)O)C(=O)N[C@@H](Cc1ccc(O)cc1)C(=O)N[C@@H](CO)C(=O)N[C@@H](CCCCN)C(=O)N[C@@H](Cc1ccc(O)cc1)C(=O)N[C@@H](CC(C)C)C(=O)N[C@@H](CC(=O)O)C(=O)NC(C)(C)C(=O)N[C@@H](CCCNC(=N)N)C(=O)N[C@@H](CCCNC(=N)N)C(=O)N[C@@H](C)C(=O)N[C@H](C(=O)N[C@@H](CC(=O)O)C(=O)N[C@@H](Cc1ccccc1)C(=O)N[C@H](C(=O)N[C@H](C(=O)N[C@@H](Cc1c[nH]c2ccccc12)C(=O)N[C@@H](CC(C)C)C(=O)N[C@@H](CC(C)C)C(=O)N[C@@H](CC(=O)O)C(=O)N[C@@H](CCC(=O)O)C(=O)O)[C@@H](C)O)C(C)C)[C@@H](C)O)[C@@H](C)O)[C@@H](C)O [SEQ ID NO: 256] (H-HS[Dab](Ac)GTFTSDYSKYLD[Aib]RRATDFVTWLLDE-OH; N-terminus and C-terminus assumed) | % activity* (glucagon receptor; Table 7): 46%

Compound | Glucagon Receptor relative activity (glucagon receptor; Table 1) | GLP-1 Receptor relative activity (GLP-1 receptor; Table 1) | further results
CC[C@H](C)[C@H](NC(=O)[C@H](CO)NC(=O)[C@H](Cc1ccc(O)cc1)NC(=O)[C@H](CC(=O)O)NC(=O)[C@H](CO)NC(=O)[C@@H](NC(=O)[C@H](Cc1ccccc1)NC(=O)[C@@H](NC(=O)CNC(=O)[C@H](CCC(N)=O)NC(=O)C(C)(C)N)[C@@H](C)O)[C@@H](C)O)C(=O)N[C@@H](Cc1ccc(O)cc1)C(=O)N[C@@H](CC(C)C)C(=O)N[C@@H](CC(=O)O)C(=O)N[C@@H](CCC(=O)O)C(=O)N[C@@H](CCC(=O)O)C(=O)N[C@@H](C)C(=O)N[C@H](C(=O)N[C@@H](CCCNC(=N)N)C(=O)N[C@@H](CC(C)C)C(=O)N[C@@H](Cc1ccccc1)C(=O)N[C@H](C(=O)N[C@@H](CC(N)=O)C(=O)N[C@@H](Cc1c[nH]c2ccccc12)C(=O)N[C@@H](CC(C)C)C(=O)N[C@@H](CC(C)C)C(=O)N[C@@H](C)C(=O)NCC(=O)NCC(=O)N1CCC[C@H]1C(=O)N[C@@H](CO)C(=O)N[C@@H](CO)C(=O)NCC(=O)N[C@@H](C)C(=O)N1CCC[C@H]1C(=O)N1CCC[C@H]1C(=O)N1CCC[C@H]1C(=O)N[C@@H](CO)C(N)=O)C(C)C)C(C)C [mt-194] (H-[Aib]QGTFTSDYSIYLDEEAVRLFVNWLLAGGPSSGAPPPS-NH2; N-terminus assumed) |  | 0.63% | 
FTSDYSIYLDEQAAKEFVNWLLAGGPSSGAPPPS-NH2 [mt-192] |  | 0.06% | 
